Laboratory results as given in ChEMBL document CHEMBL1158743, “Tenellones A and B from a Diaporthe sp.: two highly substituted benzophenone inhibitors of parasite cGMP-dependent protein kinase activity” (J Nat Prod, 2005).
In brackets after ≈: the same amount, converted by molar mass. Activity calls are given as the source filed them. The rule behind the calls is not given here.

What was measured:
[1] = biological target: cGMP-dependent protein kinase (Eimeria tenella, UniProt Q8MMZ8); assay: Inhibition of Eimera tenella CGMP-dependent protein kinase by radiometric assay
cGMP-dependent protein kinase, sequence (Q8MMZ8 whole entry): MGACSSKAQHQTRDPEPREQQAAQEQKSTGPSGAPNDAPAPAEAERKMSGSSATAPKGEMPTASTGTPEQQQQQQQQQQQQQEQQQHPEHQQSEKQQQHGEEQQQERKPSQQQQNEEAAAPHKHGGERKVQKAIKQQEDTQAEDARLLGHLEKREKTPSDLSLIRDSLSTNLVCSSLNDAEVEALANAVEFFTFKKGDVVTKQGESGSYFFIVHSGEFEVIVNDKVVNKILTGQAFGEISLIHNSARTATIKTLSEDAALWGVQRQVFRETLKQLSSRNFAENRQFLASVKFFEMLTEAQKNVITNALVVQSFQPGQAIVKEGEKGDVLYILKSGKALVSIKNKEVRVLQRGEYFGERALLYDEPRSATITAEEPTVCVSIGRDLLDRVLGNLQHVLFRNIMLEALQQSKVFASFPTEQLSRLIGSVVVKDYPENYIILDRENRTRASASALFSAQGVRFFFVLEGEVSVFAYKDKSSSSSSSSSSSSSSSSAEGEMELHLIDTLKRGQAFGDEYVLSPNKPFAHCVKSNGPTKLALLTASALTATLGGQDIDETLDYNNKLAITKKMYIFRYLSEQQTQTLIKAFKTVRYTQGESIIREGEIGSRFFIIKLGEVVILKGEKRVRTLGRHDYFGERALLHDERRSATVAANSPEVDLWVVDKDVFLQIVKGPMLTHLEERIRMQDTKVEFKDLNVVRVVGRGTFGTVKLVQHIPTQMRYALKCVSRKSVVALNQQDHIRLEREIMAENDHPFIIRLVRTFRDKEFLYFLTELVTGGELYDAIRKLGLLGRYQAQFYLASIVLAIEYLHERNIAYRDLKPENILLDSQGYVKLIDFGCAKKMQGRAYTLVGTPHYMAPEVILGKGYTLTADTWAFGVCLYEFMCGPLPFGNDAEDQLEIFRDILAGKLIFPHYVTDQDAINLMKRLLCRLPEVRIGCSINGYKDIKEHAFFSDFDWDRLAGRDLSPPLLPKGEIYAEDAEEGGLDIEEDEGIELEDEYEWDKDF

Gallus gallus = species on record: Gallus gallus; assay: Toxicity to Eimera tenella infected chickens given ad libitum at 100 ppm; type: organism-based; settings: chicken, in vivo, po
Toxoplasma gondii = assay: Antiparasitic activity against Toxoplasma gondii infected in human foreskin fibroblasts assessed as beta-galactosidase activity after 5 days by whole cell assay; type: functional, organism-based; settings: 120 h
Eimeria tenella = assay: Antiparasitic activity against Eimera tenella infected in chickens given ad libitum at 100 ppm fed with diet; type: functional, organism-based
Staphylococcus aureus = assay: Antibacterial activity against Staphylococcus aureus; type: functional
Enterococcus faecium = assay: Antibacterial activity against Enterococcus faecium; type: functional

For `CN1CCC(c2cc(-c3ccncc3)c(-c3ccc(F)cc3)[nH]2)CC1`, the IC50 [1] was < 0.001 µM.
In the case of `CC(C)=CCc1ccc(O)c(C=O)c1C(=O)c1cc(C)cc(OCC(O)C(C)(C)O)c1O` (stereo not given) [TENELLONE A], the Activity (Gallus gallus) is reported as “Non-toxic”, the IC50 [1] is reported as 12.6 µM and the IC50 (Toxoplasma gondii) is reported as 1.8 µM. For the same compound, the Activity (Eimeria tenella) was “inactive”.
`CC(C)=CCc1ccc(O)c(C=O)c1C(=O)c1cc(C)cc2c1OC(C(C)(C)O)CO2` (stereo not given) [TENELLONE B] was tested, and the Activity (Gallus gallus) was “Non-toxic”, the IC50 [1] was 8.7 µM and the Activity (Eimeria tenella) was “inactive”.
For `COc1c(Cl)c(C)c(Cl)c(O)c1C(=O)c1c(C=O)c(O)cc(O)c1CC=C(C)C` [PESTALONE], the MIC (Staphylococcus aureus) was 0.037 µg/mL (≈ 0.0842 µM) and the MIC (Enterococcus faecium) was 0.078 µg/mL (≈ 0.178 µM).
